Reference: patent US6693081B2, “Bone stimulating factor” (Osteopharm Inc., priority 1995, dated 2004)
Entries after “also recorded” stand apart in the source; their conditions may differ.

Experiments:
[1] = tested on: female Sprague-Dawley rats; assay: Bone mineral apposition rate in rats, third set of experiments (protected polypeptides); assay type: in vivo, rat; details: 100 nmoles; for Group arithmetic mean of bone apposition rate: female Sprague-Dawley rats, N=3, control 1.256; for Bone stimulatory activity (in words): rats
Procedure: The polypeptide having the sequence identified as SEQ ID NO:12 has two sites susceptible to cleavage by the peptidase plasmin, between the lysine-threonine and the lysine-asparagine residues, respectively. In a third set of experiments, nine female Sprague-Dawley rats (average weight, about 300 gm) were divided into three groups of three. Each of the first group, the control group, was injected with 400 μl of buffer solution, 50 mM sodium acetate adjusted to pH 4.5 followed immediately by 200 μl of a 1M tetracycline hydrochloride solution. The rats of the second group were each injected with 400 μl of buffer containing 100 nmoles of a chemically synthesized polypeptide having the sequence identified as SEQ ID NO:17 followed immediately by 200 μl of a 1 M tetracycline hydrochloride solution. The rats of the third group were each injected with 400 μl of buffer containing 100 nmoles of a chemically synthesized polypeptide having the sequence identified as SEQ ID NO:18 followed immediately by 200 μl of a 1M tetracycline hydrochloride solution.
After about 48 hours, a second dose of tetracycline hydrochloride was administered to each rat. After about another 24 hours, rats were sacrificed by carbon dioxide narcosis.
The right femur of each animal was taken and treated, as described above, and measurements made as described above.

male Sprague-Dawley rats [2] = assay: Bone mineral apposition rate in rats, second set of experiments (NAP-2V subsequences); assay type: in vivo, rat; details: for Group arithmetic mean of bone apposition rate: about 25 nmol injected in right thigh, male Sprague-Dawley rats, N=3-4, control 1.08
Procedure: In a second set of experiments, twenty-four male Sprague-Dawley rats (Charles River Laboratory) were divided into six groups of four. Each of the first group, the control group, was injected in the right thigh with 200 μl of 0.1% acetic acid solution. The rats of the other groups were each injected in the right thigh with about 200 μl of a 0.1% acetic acid solution containing about 25 nmol of a chemically synthesized polypeptide as follows:
Immediately after injection of the polypeptide (control) solution, each rat was injected in the right gluteus maximus with 200 μl of a 1 M tetracycline hydrochloride (Sigma Chemical) solution. This dosage of tetracycline is about 16 mg per kg of animal body weight.
About 48 hours later, each rat was injected in the left gluteus maximus with the same dosage of tetracycline. Twenty-four hours later, the rats were sacrificed by CO2 narcosis and the right femur taken for bone mineral apposition rate determination. One rat died during the course of the experiments.
Immediately after dissection, a bone sample was fixed in 10% formaldehyde solution at pH 7.4. Later the same day, a 1:1 H2O-acetone solution was exchanged for the formaldehyde solution. This was exchanged twice the following day with acetone. This was exchanged the following day by a 1:1 acetone-Spurr's medium solution, which was exchanged later the same day with Spurr's medium. The following day each sample was embedded in a fresh change of Spurr's medium and cured at 60° C. for 24 hours, followed by curing at 80° C. for 24 hours.
Each cured block was cut into 400 μm thick sections using a Leitz saw microtome equipped with a diamond charged blade. The relatively thick sections were ground down between two ground glass plates pre-roughened with carborundum powder to a final thickness of about 10 μm, water being used as the grinding lubricant. The thin sections were dried and mounted unstained in Permount (Fisher).
Measurements were made using a Leitz scanning light microscope photometer MPV-CD magnifying the sections 16×, as described in international patent application No. PCT/CA94/00144.

[3] = tested on: female Sprague-Dawley rats; assay: Dose dependence of bone mineral apposition rate in rats, fourth set of experiments; assay type: in vivo, rat; details: N=4, control 1.320
Procedure: In a fourth set of experiments, dose dependence of the measured bone mineral apposition rate on the amount of polypeptide having SEQ ID NO:18 was evaluated. Twenty-eight female Sprague-Dawley rats (average weight, about 300 gm) were divided into seven groups of four. The rats were treated as described in the previous set of experiments except that the amount of test polypeptide varied as follows: 25, 50, 100, 200, 400 and 800 nmoles.

male Sprague-Dawley rats [4] = assay: Bone mineral apposition rate in rats, first experiments (NAP-2, NAP-2V); assay type: in vivo, rat; details: 25 nmol; for Bone stimulatory effect (in words): rats; for Group arithmetic mean of bone apposition rate: subcutaneous injection, male Sprague-Dawley rats, N=5, right femur lower metaphysis, control 0.99
Procedure: Experiments were conducted simultaneously on three groups of male Sprague-Dawley rats, there being five rats in each group. Each rat weighed between 250 and 350 g. Each rat of the first group was given, by subcutaneous injection into the left gluteus maximus region, 200 μl of a 1% aqueous acetic acid solution containing 25 nmol (about 191 μg) of NAP-2 (SEQ ID NO:1). Each rat of the second group was similarly given 200 μl of a 1% aqueous acetic acid solution containing 25 nmol (about 207 μg) of NAP-2V (SEQ ID NO:2). Each rat of the third group, the control group, was similarly given 200 μl of 1% acetic acid solution.
Immediately following administration of the test solution, 300 μl of an aqueous solution of tetracycline hydrochloride was administered intramuscularly into the right gluteus maximus, the concentration of tetracycline being sufficient to obtain a dosage of about 24 mg/kg of rat body weight. A second dose of tetracycline hydrochloride solution was administered about 48 hours after the first dose. The rats were sacrificed about 24 hours after administration of the second dose of tetracycline.
Sections of the lower metaphysis of the right femur were used for bone measuring the bone mineral apposition rate. Processing of the bone material for measurement has been described previously. See, for example, international patent application No. PCT/CA 94/00144 published under No. WO 94/20615 on Sep. 15, 1994.

Saos-2 = Saos-2 osteoblastic osteosarcoma cell line; U.S. Pat. No. 5,304,542; cited from earlier work
G-292 = G-292 osteoblastic osteosarcoma cell line; U.S. Pat. No. 5,304,542; cited from earlier work

Molecule: SEQ ID NO: 17: Protected NAP-2V-(13-26; gln^25→glu^25): Xaa Lys Thr Thr Ser Gly Ile His Pro Lys Asn Ile Glu Xaa; N-acetyl isoleucine, serinamide (Ac-IKTTSGIHPKNIES-NH2; also: protecting groups)
- Group arithmetic mean of bone apposition rate [1]: 1.859 μm/d
- Bone stimulatory activity (in words) [1]: bond stimulatory activity

Molecule: NAP-2V-(13-26; gln^25→ glu^25) (IKTTSGIHPKNIES; OTHER INFORMATION: Description of Artificial Sequence: Chemically synthesized polypeptide) [SEQ ID NO: 12, Ile Lys Thr Thr Ser Gly Ile His Pro Lys Asn Ile Glu Ser]
- Group arithmetic mean of bone apposition rate (male Sprague-Dawley rats [2]): 1.70 μm per day
- Effect on observed bone (mineral) apposition rate (in words) (male Sprague-Dawley rats [2]; about 25 nmol, rats; gln^25→glu^25)): stimulate bone growth; also recorded: greater activity; also recorded: increase the observed bone apposition rate

Molecule: SEQ ID NO: 18: Protected NAP-2V-(15-22): Xaa Thr Ser Gly Ile His Pro Xaa; Xaa1 N-acetyl threonine, Xaa8 lysinamide (Ac-TTSGIHPK-NH2; also: protecting groups)
- Group arithmetic mean of bone apposition rate [1]: 2.406 μm/d
- Bone stimulatory activity (in words) [1]: greater bone stimulatory activity; also recorded: bond stimulatory activity
- Bone apposition rate, mean ([3]; 25 nmol): 1.686 μm/day
- Bone apposition rate, mean ([3]; 50 nmol): 1.753 μm/day
- Bone apposition rate, mean ([3]; 100 nmol): 1.907 μm/day
- Bone apposition rate, mean ([3]; 200 nmol): 2.209 μm/day
- Bone apposition rate, mean ([3]; 400 nmol): 2.123 μm/day
- Bone apposition rate, mean ([3]; 800 nmol): 2.139 μm/day

Molecule: NAP-2V-(1-26) (DSDLYAELRCMCIKTTSGIHPKNIQS; OTHER INFORMATION: Description of Artificial Sequence: Chemically synthesized polypeptide) [SEQ ID NO: 11]
- Group arithmetic mean of bone apposition rate (male Sprague-Dawley rats [2]): 1.47 μm per day
- Effect on observed bone (mineral) apposition rate (in words) (male Sprague-Dawley rats [2]; about 25 nmol, rats): stimulate bone growth; also recorded: increase the observed bone apposition rate

Molecule: NAP-2V-(10-26) (CMCIKTTSGIHPKNIQS; OTHER INFORMATION: Description of Artificial Sequence: Chemically synthesized polypeptide) [SEQ ID NO: 13, Cys Met Cys Ile Lys Thr Thr Ser Gly Ile His Pro Lys Asn Ile Gln Ser]
- Group arithmetic mean of bone apposition rate (male Sprague-Dawley rats [2]): 1.18 μm per day
- Effect on observed bone (mineral) apposition rate (in words) (male Sprague-Dawley rats [2]; about 25 nmol, rats): small increase

Molecule: NAP-2V-(11-26) (MCIKTTSQIHPKNIQS; OTHER INFORMATION: Description of Artificial Sequence: Chemically synthesized polypeptide) [SEQ ID NO: 14, Met Cys Ile Lys Thr Thr Ser Gln Ile His Pro Lys Asn Ile Gln Ser]
- Group arithmetic mean of bone apposition rate (male Sprague-Dawley rats [2]): 1.07 μm per day
- Effect on observed bone (mineral) apposition rate (in words) (male Sprague-Dawley rats [2]; about 25 nmol, rats, listed as 14): do not appear to enhance bone growth
- Effect on observed bone (mineral) apposition rate (in words) (male Sprague-Dawley rats [2]; about 25 nmol, rats, listed as NAP-2V-(11-26)): no effect

Molecule: NAP-2V-(12-26) (CIKTTSGIHPKNIQS; OTHER INFORMATION: Description of Artificial Sequence: Chemically synthesized polypeptide) [SEQ ID NO: 15, Cys Ile Lys Thr Thr Ser Gly Ile His Pro Lys Asn Ile Gln Ser]
- Group arithmetic mean of bone apposition rate (male Sprague-Dawley rats [2]): 1.04 μm per day
- Effect on observed bone (mineral) apposition rate (in words) (male Sprague-Dawley rats [2]; about 25 nmol, rats, listed as 15): do not appear to enhance bone growth
- Effect on observed bone (mineral) apposition rate (in words) (male Sprague-Dawley rats [2]; about 25 nmol, rats, listed as NAP-2V-(12-26)): no effect

B1: NAP-2 (peptide)
chain: AELRCMCIKTTSGIHPKNIQSLEVIGKGTHCNQVEVIATLKDGRKICLDPDAPRIKKIVQKKLAGDESAD
modifications: OTHER INFORMATION: Description of Artificial Sequence: Chemically synthesized polypeptide
- Bone stimulatory effect (in words) (male Sprague-Dawley rats [4]): bone stimulatory effects
- Bone stimulatory effect (in words) (male Sprague-Dawley rats [4]; listed as SEQ ID NO:1): stimulate bone growth
- Group arithmetic mean of bone apposition rate (male Sprague-Dawley rats [4]): 1.23 μm/d

B2: Platelet factor 4 (protein)
chain: EAEEDGDLQCLCVKTTSQVRPRHITSLEVIKAQPHCPTAQLIATLKNGRKICLDLEAPLYKKIIKKLLES
modifications: OTHER INFORMATION: Description of Artificial Sequence: Chemically synthesized polypeptide
notes: seventy amino acid polypeptide
- Effect on cell proliferation (in words) (Saos-2): inhibit proliferation
- Effect on cell proliferation (in words) (G-292): inhibit proliferation

B3: NAP-2V (peptide)
chain: DSDLYAELRCMCIKTTSGIHPKNIQSLEVIGKGTHCNQVEVIATLKDGRKICLDPDAPRIKKIVQKKLAGDESAD
modifications: OTHER INFORMATION: Description of Artificial Sequence: Chemically synthesized polypeptide
notes: variant of NAP-2, 75 amino acids, chemically synthesized polypeptide
- Bone stimulatory effect (in words) (male Sprague-Dawley rats [4]): bone stimulatory effects
- Bone stimulatory effect (in words) (male Sprague-Dawley rats [4]; listed as SEQ ID NO:2): stimulate bone growth
- Group arithmetic mean of bone apposition rate (male Sprague-Dawley rats [4]): 1.28 μm/d
